Results published in US20260376293A1, “METHODS FOR STUDYING GPR158 PHARMACOLOGY AND IDENTIFICATION OF ITS LIGANDS” (UNIVERSITY OF FLORIDA RESEARCH FOUNDATION, INCORPORATED, priority 2022, published 2026).

Test system: layer II-III pyramidal neurons
Assay: Whole cell recordings, layer II-III prelimbic cortex neurons, WT mice
Format: cell-based, mouse
Settings: 1 mM
Method: FIGS. 14A-14H. Effect of glycine on neuronal excitability. A) Schematic of the electrophysiological recordings in slice preparation targeting mPFC neurons of layer II-III. Experiments were conducted with a cocktail of synaptic blockers: picrotoxin (100 μM) (blockade of GABAA receptor chloride channels), strychnine (1 μM) (antagonist of glycine and acetylcholine ionotropic receptors), CNQX (20 μM) (AMPA receptors antagonist), and APV (50 μM) (NMDAR antagonist). B) Representative traces of voltage responses to a 200 pA current ramp injection under control conditions and after bath application of glycine (1 mM) in WT mice. C) Quantification of changes in excitability by number of action potentials fired in response to 200 pA current ramp (n=8 neurons from 5 mice). Nonparametric t-test; Wilcoxon test, **p<0.01. D) Quantification of changes in excitability by rheobase current under control condition and glycine application (n=8 neurons from 5 mice). Nonparametric t-test; Wilcoxon test, **p<0.01. E) Representative traces of voltage responses to a 200 pA current ramp injection obtained from layer II-III pyramidal neurons in GPR158 KO mice under control conditions and during bath application of glycine (1 mM). F) Quantification of changes in excitability by number of action potentials fired in response to 200 pA current ramp (n=4 neurons/3 mice). Nonparametric t-test; Wilcoxon test, ns=p>0.05. G) Quantification of changes in excitability by rheobase current under control condition and glycine application (n=4 neurons/3 mice). Nonparametric t-test; Wilcoxon test, ns=p>0.05. H) Schematic representation of the proposed mechanism of glycine effects on mGlyR. In 14C, 14D, 14F, and 14G, solid circles (Ctrl), circles with no fill (Glycine), columns with no fill (Ctrl), and columns with dotted fill (Glycine).
FIGS. 15A-15H. Effect of glycine and taurine on excitability of layer V neurons and membrane properties of layer II/III neurons in wild type and GPR158 knockout mice. A) Representative traces of voltage responses to a 200 pA current ramp injection obtained from layer V pyramidal neurons in WT mice under control conditions and during bath application of glycine (1 mM). B) Quantification of glycine effects on neuronal excitability by number of action potentials fired in response to 200 pA current ramp under control condition and glycine application (n=4 neurons/3 mice). Nonparametric t-test; Wilcoxon test, ns=p>0.05. C) Quantification of glycine effects on neuronal excitability by rheobase current under control condition and glycine application (n=4 neurons/3 mice). Nonparametric t-test; Wilcoxon test, ns=p>0.05. D) Resting membrane potential of layer V pyramidal neurons in WT mice under control conditions and during bath application of glycine (n=4 neurons/3 mice). […]

[1] = 200 pA current ramp, synaptic blockers

Compound	resting membrane potential	number of action potentials fired [1]	rheobase current [1]
NCC(=O)O [glycine]	without changes in the resting membrane potential	significantly increased the number of action potentials	decreasing the amount of current necessary to elicit the first action potential
NCCS(=O)(=O)O [taurine, 2-aminoethanesulfonic acid]	–	–	ns
